Reference: patent publication US20100021567A1, “Peganine Isolated from Anisotes Trisulcus L. as a Smoking Deterrent and Anorxigenic Agent” (priority 2006, published 2010)
Entries after “also recorded” stand apart in the source; their conditions may differ.

Assays:
Albino mice = experiment: Nicotine-induced convulsions and death in mice; type: in vivo
Experimental: Albino mice were divided into different groups (N=5) and injected with different doses of nicotine dissolved in water. The animals were injected (i.p) with doses 0.8, 1.6, 3.2 and 6.4 mg/kg. The animals were continuously observed for 2 hours for appearance of any changes in behavior such as tremors, convulsions (clonic or tonic), abnormal movements changes in tail position and shapes, changes in locomotor activity and death.
Then after 5 minutes nicotine LD25 was then administered and the animals were observed continuously for any changes in behavior, convulsions or death. The time of convulsions and death were recorded.

[1] = cited from earlier work
Male Wistar rats = experiment: Nicotine and food consumption in rats; type: in vivo
Experimental: Male Wistar rats (200 g body weight) were divided at random into various groups (N=6 animals per group). Each animal was placed in a stainless steel cage and provided with a known weight of normal rat chow food pellets and drinking bottle containing a known volume of aqueous 0.025% sodium carboxymethylcellulose containing either nicotine acid tartarate to provide a final concentration of 40 μg/ml (in case of control groups) or the same concentration of nicotine plus the indicated concentrations of the whole extract, one of its fractions or peganine. The latter were added in form of their emulsions in 0.25% aqueous sodium carboxymethylcellulose in volumes that provide a final concentration of 0.025% of sodium carboxymethylcellulose in the drinking fluid. The animals were allowed both food and the drinking liquid ad libitum. The room temperature where the animals were placed was maintained at 23±2° C. The light cycle was kept at 12 h light and 12 h dark. The relative humidity was maintained at 75±5%. Both food and drinking liquid consumptions were measured every 2 days and at the end of the treatment which continued for complete seven consecutive days.
All results were reported as their means±s. e. mean with N=number of experiments. Statistical significance between control and treated groups were performed using student's t-test.

[2] = test system: dopamine turnover in the mesolimbic system; details: dose 5.6 mg/kg; nicotine 1 mg/kg; rats; cited from earlier work
[3] = in vivo; cited from earlier work
[4] = peganine 140 mg/100 ml (1.4 mg/ml) + nicotine 40 μg/ml, vs control
[5] = peganine 140 mg/100 ml + nicotine 40 μg/ml in drinking water, 7 days

For `CN1CCCC1c1cccnc1` (stereo not drawn) [Nicotine], the Actions (Albino mice; Nicotine 1.6 mg/kg (i.p)) was “f) No death; also recorded: a) Increase in locomotor activity; also recorded: b) Raising of tail; also recorded: c) Tremors; also recorded: d) Shaking of the body; also recorded: e) Increase in respiratory rate”, the Actions (Albino mice; Nicotine 3.2 mg/kg (i.p)) was “a) Tremors; also recorded: b) Fanning of tail; also recorded: c) Convulsions (Clonic-type); also recorded: d) Tremors; also recorded: e) Salivation; also recorded: f) No death” and the Actions (Albino mice; Nicotine 6.4 mg/kg (i.p)) was “a) Circular movements; also recorded: b) Convulsions; also recorded: c) Death after 3 minutes”.

In the case of `O[C@H]1CCN2Cc3ccccc3N=C12` [peganine, 1,2,3,9-tetrahydropyrolo[2,1-b]quinazolin-3-ol], the “Effect on isolated gut” value ([1]; isolated gut) is given as “inhibit peristalsis of isolated gut”, the Cardiac effect ([1]; isolated heart) is given as “negative inotropic effect of peganine with reduced coronary flow” and the “% decrease in food consumed” value (Male Wistar rats; [4]) is given as 77.8%. For the same compound, the “% decrease in nicotine consumed” value (Male Wistar rats; [4]) was 79%, the “Liquid consumed daily per 200 g rat per day” value (Male Wistar rats; [5]) was 5.5 ± 0.13 mL and the “Quantity of food consumed per 200 g rat per day” value (Male Wistar rats; [5]) was 5.66 ± 0.3 g. The “Quantity of nicotine consumed per day” value (Male Wistar rats; [5]) was 0.22 mg.

For `c1cnc2cc3c(cc2n1)[C@@H]1CNC[C@H]3C1` [vareniciline], the “Effect on nicotine-induced increase in dopamine turnover” value [2] is given as “significantly blocked”.

In the case of (−)-cytisine, the “Blood brain barrier penetrability” value [3] is given as “poor blood brain barrier penetrability”.
